Experimental data: patent US5444077A, “Ameliorant of cerebral circulation and optical isomer of NB-818, processes for its use” (Banyu Pharmaceutical Co., Ltd., priority 1987, dated 1995)

Tests used:
[1] = tested on: vertebral artery; experiment: Effect of optical isomers to increase the blood flow of the vertebral artery in anesthetized beagle dogs (Pharmacological Test Example 6); format: in vivo, beagle dog
[2] = tested on: vertebral artery; experiment: as above; format: in vivo, beagle dog; details: intravenous
Protocol: (§1) Effect to increase the blood flow of the vertebral artery
(§2) A male or female beagle dog having a body weight of about 10 kg was anesthetized by subcutaneous administration of 35 mg/kg of sodium pentobarbital, and the level of anesthesia was maintained by continuous injection of from 4 to 6 mg/kg/hr of sodium pentobarbital.
The test was conducted by maintaining the blood gases under optimum conditions under artificial respiration. A drug was dissolved in a 0.9 wt % saline containing 10% by weight of polyethylene glycol and 10% by weight of ethanol, and a predetermined amount of the solution was intravenously injected to the beagle dog. Then, the blood flow, the blood pressure and the heart rate were measured.
The blood flow was measured by an electromagnetic flow meter by means of blood flow probes attached to the vertebral artery and the femoral artery of the beagle dog. The blood pressure was measured by a pressure transducer connected to a canule inserted to the left femoral artery of the beagle dog. Further, the heart rate was measured by a heart rate counter based on the pulse wave of blood pressure.
The levo-rotatory optical isomer of 2-carbamoyloxymethyl-4-(2,3-dichlorophenyl)-6-methyl-1,4-dihydropyridine-3,5-dicarboxylic acid 3-isopropyl ester 5-methyl ester will be hereinafter referred to simply as (-)-NB-818, and the dextro-rotatory optical isomer thereof will be referred to simply as (+)-NB-818.

[3] = tested on: vertebral artery; experiment: Effect to increase the blood flow of the vertebral artery in anesthetized beagle dogs (Pharmacological Test Example 1); format: in vivo, beagle dog
Protocol: as §1, §2
The test was conducted by maintaining the blood gases under optimum conditions under artificial respiration. A drug was dissolved in a 0.9 wt % saline containing 10% by weight of polyethylene glycol and 10% by weight of ethanol, and a predetermined amount of the solution was intravenously or intraduodenally injected to the beagle dog. Then, the blood flow, the blood pressure and the heart rate were measured.
The blood flow was measured by an electromagnetic flow meter by means of blood flow probes attached to the vertebral artery and the femoral artery of the beagle dog. The blood pressure was measured by a pressure transducer connected to a canule inserted to the left femoral artery of the beagle dog.

[4] = tested on: cerebral regional blood flow; experiment: Effect to increase the cerebral regional blood flow in rabbits (Pharmacological Test Example 2); format: in vivo, rabbit; details: 0.01 mg/kg, intravenous
Protocol: A male rabbit having a body weight of about 3 kg was immobilized by intravenous injection of gallamine (2-3 mg/kg) and secured to an apparatus for fixing the brain position. Then, platinum electrodes for measuring hydrogen gas clearance were inserted to the top of cerebral cortex, to the center of the cerebellum and to the femoral muscle, and the blood flows were measured. The drug was dissolved in a 0.9 wt % saline containing 10% by weight of polyethylene glycol and 10% by weight of ethanol, and the solution was intravenously injected.

[5] = tested on: cerebral isochemia models of Mongolian gerbils; experiment: Effect to prolong the life in the cerebral ischemia models of Mongolian gerbils (Pharmacological Test Example 4); format: in vivo, Mongolian gerbil; details: 0.01 mg/kg, intraperitoneal; control 100
Protocol: Effect to prolong the life in the cerebral isochemia models of Mongolian gerbils
A male Mongolian gerbil having a body weight of about 70 g was anesthetized by intraperitoneal administration of 70 mg/kg of ketamine hydrochloride. Then, left and right common carotid arteries were exposed and closed by scorbil clips for 20 minutes. Then, the clips were removed to regain the blood flow. Thirty minutes later, a drug dissolved in a 0.9 wt % saline containing 10% by weight of polyethylene glycol 300 and 10% by weight of ethanol, was intraperitoneally administered. The effect to prolong the life was determined by observing mortality and the neurotic symptom during 8 hours or 24 hours from the administration of the drug.

[6] = tested on: amnesia induced by ECS; experiment: Effect against amnesia induced by ECS, passive avoidance, pretreatment with drug administration (Pharmacological Test Example 5); format: in vivo, rat; details: 3 mg/kg p.o.
Description: By using male rats having a body weight of about 200 g, the antiamnesic effect was examined on the basis of one trial passive avoidance reaction as an index. Namely, a rat is put in a light chamber of an operant box comprising the light chamber and a dark chamber, and when the rat entered into the dark chamber, an electric stimulation (5 mA for 10 seconds) was applied from the floor and immediately an electric shock (30 mA, 0.75 second) (hereinafter referred to simply as ECS) was applied to the head of the rat. Two hours or 24 hours after the ECS, the rat was put in the light chamber, and the time until the rat entered from the light chamber to the dark chamber (the latent reaction time) was measured,
The drug was suspended in a 0.5 wt % methyl cellulose and orally administered three times at intervals of 24 hours so that the final administration was conducted one hour prior to ECS.

[7] = tested on: cerebral regional blood flow; experiment: Effect to increase the cerebral regional blood flow in monkeys (Pharmacological Test Example 3); format: in vivo, Rhesus monkey; details: 0.01 mg/kg, intravenous
Protocol: Effect to increase the cerebral regional blood flow in monkeys
A male Rhesus monkey having a body weight of from 5.0 to 11.0 kg was anesthetized with ketamine hydrochloride (1 mg/kg by intravenous injection) and sodium pentobarbital (30 mg/kg by intraperitoneal injection), and an endotracheal tube was inserted for artificial respiration. Then, the animal's head was fixed to a stereotaxic apparatus. The cerebral blood flow was calculated from the hydrogen gas clearance curve measured by means of needle type electrodes for hydrogen gas clearance inserted to the cerebral cortex after incising the head and boring a hole in the occipital lobe.
The drug was dissolved in a 0.9 wt % saline containing 10% by weight of polyethylene glycol 300 and 10% by weight of ethanol, and the solution was intravenously administered.

COC(=O)C1=C(C)NC(COC(N)=O)=C(C(=O)OC(C)C)C1c1cccc(Cl)c1Cl (single isomer, unassigned; (-)) [(-)-NB-818, levo-rotatory optical isomer of 2-carbamoyloxymethyl-4-(2,3-dichlorophenyl)-6-methyl-1,4-dihydropyridine-3,5-dicarboxylic acid 3-isopropyl ester 5-methyl ester]
Change in blood pressure ([1]; 0.01 mg/kg, intravenous): -26.6%
Change in femoral artery blood flow ([2]; 0.01 mg/kg): +3.3%
Change in heart rate ([2]; 0.01 mg/kg): +3.4%
Change in vertebral artery blood flow ([2]; 0.01 mg/kg): +123.2%
Effective period (Half-life period) ([2]; 0.01 mg/kg): 44 min

COC(=O)C1=C(C)NC(COC(N)=O)=C(C(=O)OC(C)C)C1c1cccc(Cl)c1Cl (single isomer, unassigned; (+)) [(+)-NB-818]
Change in blood pressure ([1]; 0.1 mg/kg, intravenous): -8.1%
Change in vertebral artery blood flow ([1]; 0.1 mg/kg, intravenous): +56.8%
Effective period (Half-life period) ([1]; 0.1 mg/kg, intravenous): 15.5 min
Change in femoral artery blood flow ([2]; 0.1 mg/kg): +18.8%
Change in heart rate ([2]; 0.1 mg/kg): +3.8%

COCCOC(=O)C1=C(C)NC(C)=C(C(=O)OC(C)C)C1c1cccc([N+](=O)[O-])c1 (centres unmarked) [Nimodipine, nimodipine]
Change in blood pressure ([1]; 0.3 mg/kg, intraduodenal): -29%
Change in femoral artery blood flow ([1]; 0.3 mg/kg, intraduodenal): +75%
Change in heart rate ([1]; 0.3 mg/kg, intraduodenal): -23%
Change in vertebral artery blood flow ([1]; 0.3 mg/kg, intraduodenal): +102%
Effective period (Half-life period) ([1]; 0.3 mg/kg, intraduodenal): 150 min
Change in blood pressure ([3]; 0.3 mg/kg id (intraduodenal)): -29%
Change in femoral artery blood flow ([3]; 0.3 mg/kg id (intraduodenal)): +75%
Change in vertebral artery blood flow ([3]; 0.3 mg/kg id (intraduodenal)): +102%
Effective period (Half-life period) ([3]; 0.3 mg/kg id (intraduodenal)): 150 min
Blood flow change, cerebellum blood flow [4]: +55%
Blood flow change, cerebral blood flow [4]: +68%
Blood flow change, femoral muscle blood flow [4]: -5%
Effective period (Half-life period) [4]: 20.6 min
Mortality, 0-8 hours [5]: 83.3%
Mortality, 0-24 hours [5]: 91.7%
Latent reaction time, acquisition test ([6]; control 8.6 ± 1.3): 9.6 ± 1.3 s
Latent reaction time, 2 hours later ([6]; control 49.2 ± 8.1, * P < 0.05 vs control): 103.9 ± 22.2 s
Latent reaction time, 24 hours later ([6]; control 85.6 ± 22.0, * P < 0.05 vs control): 132.1 ± 25.5 s

COC(=O)C1=C(C)NC(COC(N)=O)=C(C(=O)OC)C1c1cccc(Cl)c1Cl (centres unmarked) [Compound A, 2-Carbamoyloxymethyl-4-(2,3-dichlorophenyl)-6-methyl-1,4-dihydropyridine-3,5-dicarboxylic acid 3,5-dimethyl ester]
Change in blood pressure ([3]; 0.01 mg/kg iv): -13%
Change in femoral artery blood flow ([3]; 0.01 mg/kg iv): +14%
Change in vertebral artery blood flow ([3]; 0.01 mg/kg iv): +76%
Effective period (Half-life period) ([3]; 0.01 mg/kg iv): 9 min

CCCCOC(=O)C1=C(COC(N)=O)NC(C)=C(C(=O)OC)C1c1cccc(Cl)c1Cl (centres unmarked) [Compound D, 2-Carbamoyloxymethyl-4-(2,3-dichlorophenyl)-6-methyl-1,4-dihydropyridine-3,5-dicarboxylic acid 3-butyl ester 5-methyl ester]
Change in blood pressure ([3]; 0.01 mg/kg iv): -14%
Change in femoral artery blood flow ([3]; 0.01 mg/kg iv): +13%
Change in vertebral artery blood flow ([3]; 0.01 mg/kg iv): +80%
Effective period (Half-life period) ([3]; 0.01 mg/kg iv): 44 min

CCOC(=O)C1=C(COC(N)=O)NC(C)=C(C(=O)OC)C1c1cccc(Cl)c1Cl (centres unmarked) [Compound B, 2-Carbamoyloxymethyl-4-(2,3-dichlorophenyl)-6-methyl-1,4-dihydropyridine-3,5-dicarboxylic acid 3-ethyl ester 5-methyl ester]
Change in blood pressure ([3]; 0.01 mg/kg iv): -14%
Change in femoral artery blood flow ([3]; 0.01 mg/kg iv): +16%
Change in vertebral artery blood flow ([3]; 0.01 mg/kg iv): +50%
Effective period (Half-life period) ([3]; 0.01 mg/kg iv): 36 min

COC(=O)C1=C(C)NC(C)=C(C(=O)OCCN(C)Cc2ccccc2)C1c1cccc([N+](=O)[O-])c1 (centres unmarked) [Nicardipine, nicardipine]
Change in blood pressure [7]: -24%
Change in cerebral cortex blood flow [7]: +16%
Change in heart rate [7]: +18%
Effective period (Half-life period) [7]: < 30 min
Mortality, 0-8 hours [5]: 83.3%
Mortality, 0-24 hours [5]: 91.7%

CCCOC(=O)C1=C(COC(N)=O)NC(C)=C(C(=O)OC)C1c1cccc(Cl)c1Cl (centres unmarked) [Compound C, 2-Carbamoyloxymethyl-4-(2,3-dichlorophenyl)-6-methyl-1,4-dihydropyridine-3,5-dicarboxylic acid 3-propyl ester 5-methyl ester]
Change in blood pressure ([3]; 0.01 mg/kg iv): -15%
Change in femoral artery blood flow ([3]; 0.01 mg/kg iv): +20%
Change in vertebral artery blood flow ([3]; 0.01 mg/kg iv): +95%
Effective period (Half-life period) ([3]; 0.01 mg/kg iv): 42 min
